Reference: patent US20200093128A1, “ACIDULATED SURFACTANT COMPOSITIONS AND METHODS OF REDUCING MICROBIAL LOAD” (The United States of America, as represented by the …, priority 2018, published 2020)
Where two headings read alike, the source gives them in different places. Marks after values point to notes of the source that are not given here.

Legend:
[1] = tested on: Total Coliforms; details: Lettuce, Cl 200 PPM, 10 min, Nascimento et al. (2003); cited from earlier work
[2] = tested on: Total Coliforms; details: watercress, 200 ppm NaOCl, pH-unadjusted; cited from earlier work
[3] = tested on: Salmonella; format: cell-based, S. enterica; details: dip-inoculated grape tomatoes, 100 ml wash, 2 min
Description: (§1) This example illustrates an embodiment of the effectiveness of the inventive composition. […]. The four most acid-resistant strains out of the fourteen were selected for use in this study. These four strains consisted of cattle isolate #'s 199, 758, 851, and 859, provided by Dr. T. G. Nagaraja (Distinguished Microbiology Professor, Kansas State University, Department of Veterinary Medicine). Five outbreak strains of Listeria monocytogenes were used, including L499, L502, L008, L2624, and L2625, provided by Dr. Bassam Annous (USDA-ARS-ERRC). Four serovars of S. enterica (Salmonella Newport H1275 (ERRC culture collection)), St. Paul 02-517-1 (cantaloupe outbreak), Stanley H0558 (CDC stool sample, 1995 sprout outbreak), and Montevideo G4639 (1993 tomato outbreak)) were also utilized. All isolates (except for the L. monocytogenes outbreak strains) were selected for spontaneous mutants resistant to 100 ppm of the antibiotic compound nalidixic acid (L. monocytogenes is naturally resistant to 100 ppm nalidixic acid and so was plated on media containing 100 ppm nalidixic acid without need for selection of spontaneous mutants). Isolates were individually incubated for 24 h at 37° C. in 10 mL of Tryptic Soy Broth (Difco, Sparks, Md.)+100 ppm nalidixic acid (TSBN), as an antimicrobial marker and to preclude potential contamination on plates. […]

[4] = tested on: Salmonella; details: Parsley, Cl 100 PPM, 5 min, Lapidot et al. (2006); cited from earlier work
[5] = tested on: Aerobic Bacteria; details: cited from earlier work
[6] = tested on: L. monocytogenes; format: cell-based, Listeria monocytogenes; details: dip-inoculated grape tomatoes, 100 ml wash, 2 min
Description: as §1

[7] = tested on: Salmonella, E. coli, Listeria monocytogenes, coliforms or aerobic mesophilic bacteria; test: Previous studies: produce treated with NaClO, summary of Table 1; format: cell-based; details: Table 1 studies, average 154.2 ppm free chlorine, average treatment time 5.42 min
[8] = pH of wash solution; format: physicochemical; details: wash solutions of the grape tomato test (Table 4)
[9] = tested on: Salmonella and E. coli O157:H7; details: tomato stem scars, 200 ppm free chlorine, pH-unadjusted; cited from earlier work
[10] = tested on: S. enterica, L. monocytogenes or E. coli O157:H7; test: BS EN 1276 chlorine test, summary over the three pathogens; format: cell-based; details: 48 ppm chlorine, 5 min, 3% bovine albumin (dirty conditions)
[11] = tested on: Listeria innocua; details: Lettuce, Cl 10 PPM, 5.0 min, Francis and O'Beime (2002); cited from earlier work
[12] = tested on: E. coli O157:H7; format: cell-based; details: dip-inoculated grape tomatoes, 100 ml wash, 2 min
Description: as §1

[13] = tested on: E. coli; details: Cl 100 PPM, 10.0 min, cited from earlier work
[14] = tested on: Salmonella and E. coli O157:H7; details: strawberries, 6.44 pH-adjusted free chlorine, 198 ppm; cited from earlier work
[15] = tested on: E. coli O157:H7; test: BS EN 1276 test for sanitizer efficacy of NaClO; format: cell-based; details: 0.03% bovine serum, 5 min, 22±1° C.
Description: (§2) This example illustrates an embodiment of the effectiveness of the inventive composition. […]. The four most acid-resistant strains out of the fourteen were selected for use in this study. These four strains consisted of cattle isolate #'s 199, 758, 851, and 859, provided by Dr. T. G. Nagaraja (Distinguished Microbiology Professor, Kansas State University, Department of Veterinary Medicine). Five outbreak strains of Listeria monocytogenes were used, including L499, L502, L008, L2624, and L2625, provided by Dr. Bassam Annous (USDA-ARS-ERRC). Four serovars of S. enterica (Salmonella Newport H1275 (ERRC culture collection)), St. Paul 02-517-1 (cantaloupe outbreak), Stanley H0558 (CDC stool sample, 1995 sprout outbreak), and Montevideo G4639 (1993 tomato outbreak)) were also utilized. All isolates (except for the L. monocytogenes outbreak strains) were selected for spontaneous mutants resistant to 100 ppm of the antibiotic compound nalidixic acid (L. monocytogenes is naturally resistant to 100 ppm nalidixic acid and so was plated on media containing 100 ppm nalidixic acid without need for selection of spontaneous mutants). Isolates were individually incubated for 24 h at 37° C. in 10 mL of Tryptic Soy Broth (Difco, Sparks, Md.)+100 ppm nalidixic acid (TSBN), as an antimicrobial marker and to preclude potential contamination on plates. Suspensions were centrifuged at 1980×g for 10 min, and resuspended in 5 ml of sterile deionized water and vortexed vigorously for 3 minutes. All strains of each individual species of bacteria were composited in a single sterile 500 mL beaker for inoculation of grape tomatoes.
(§3) L. monocytogenes was plated on Thermo Scientific™ Brilliance™ Listeria Agar (BLA, ThermoFisher Scientific, Fairlawn, N.J.)+100 ppm nalidixic acid without the addition of BLA antimicrobial supplements+0.1% sodium pyruvate (to aid in recovering injured cells) (see e.g., Gurtler, J. B. & L. R. Beuchat, (2005) Appl. Environ. Microbiol. 71:7661-7669; Gurtler, J. B. & Kornacki, J. L. (2009) Lett. Appl. Microbiol. 49:503-509; Wesche, A. M., et al. (2009) J. Food Prot. 72, 1121-1138). Salmonella was plated on tryptic soy agar (Difco)+100 mg/L nalidixic acid+0.1% sodium pyruvate+80 mg/L X-α-Gal (5-Bromo-4-Chloro-3-indolyl-α-D-galactopyranoside) (Research Products Intl., Mt. Prospect, Ill.)+100 mg/L Isopropyl-β-D-thiogalactopyranoside (IPTG, Fisher Scientific). X-α-Gal induces a green color change by salmonellae colonies. E. coli O157:H7 was plated tryptic soy agar (Difco)+100 mg/L nalidixic acid+0.1% sodium pyruvate+175 mg/L red/salmon-Gal (6-Chloro-3-indolyl-β-D-galactopyranoside)+100 mg/L IPTG. Red/salmon-Gal induces a pink color change by E. coli colonies.
(§4) BS EN 1276 Test for Sanitizer Efficacy of Sodium Hypochlorite (NaClO). The British Standard, European Normalization Method 1276 for sanitizers was chosen to evaluate the efficacy low level NaClO. The level of free chlorine ranged from 10 to 48 ppm free chlorine, as tested with the LaMotte Model CL-BR 3624 titration kit (Chestertown, Md.). The BS EN 1276 method as well as the French AFNOR NFT 72170 method has been traditionally used to evaluate sanitizer effectiveness (see e.g., Jacquet, C., and Reynaud, A. (1994) Int. J. Food Microbiol. 22:79-83; Taylor, J. H., et al. (1999) Int. J. Appl. Microbiol. 87:718-725). The BS EN 1276 method involves adding 0.03% bovine albumin to represent clean conditions and 0.3% albumin for dirty conditions. Briefly, 1 ml of either 0.03% or 0.3% bovine serum was added to a sterile 15 ml test tube, followed by 1 ml of the ca. 9 log CFU/ml test solution of each bacterial composite. The suspension was permitted to sit for 2 min and then 8 ml of an appropriately diluted NaClO solution was added to the 2 ml of bacteria-bovine solution suspension where concentrations of sanitizer solution were adjusted to mathematically account for the 2:8 dilution with the pathogen suspension at 10 ppm, 16 ppm, and 48 ppm. All tests were conducted at 22±1° C. […]

[16] = tested on: Listeria Monocytogenes; test: BS EN 1276 test for sanitizer efficacy of NaClO; format: cell-based; details: 0.03% bovine serum, 5 min, 22±1° C.
Description: as §2, §3, §4

[17] = tested on: EHEC & Salmonella; details: Lettuce, Cl 200 PPM, cited from earlier work
[18] = tested on: EHEC; details: cited from earlier work
[19] = tested on: Salmonella; test: BS EN 1276 test for sanitizer efficacy of NaClO; format: cell-based, S. enterica; details: 0.03% bovine serum, 5 min, 22±1° C.
Description: as §2, with “tomatoes. […]” for “tomatoes.”

[20] = tested on: L. monocytogenes; details: cited from earlier work

## OCl [NaClO, sodium hypochlorite]
[1]
  Inactivation: <2.0 Log CFU
[2]
  inactivation of pathogens: 1.1 log
[3]
  reduction, Salmonella: 2.60 ± 0.25 B log CFU/g
[4]
  Inactivation: 1.7 Log CFU
[5]; Diced Tomato, Cl 200 PPM, 0.5 min, Simmons et al. (2006)
  Inactivation: 0.00 Log CFU
[5]; Lettuce, Cl 75 PPM, 5 min, Lu et al. (2007)
  Inactivation: 2.0 Log CFU
[5]; Lettuce, Cl 150 PPM, 10 min, Koseki et al. (2001)
  Inactivation: 2.0 Log CFU
[5]; Lettuce, Cl 200 PPM, 0.5 min, Simmons et al. (2006)
  Inactivation: 1.30 Log CFU
[5]; Lettuce, Cl 200 PPM, 10.0 min, Kondo et al. (2006)
  Inactivation: 0.9 Log CFU
[6]
  reduction, L. monocytogenes: 3.16 ± 0.61 B log CFU/g
[7]
  average log reduction in previous studies: 1.24 log CFU
[8]
  pH Values: 9.88
[9]
  inactivation of pathogens: 1.53 log
[10]
  inactivated log: less than 0.76 log
[11]
  Inactivation: 1.5 Log CFU
[12]
  reduction, E. coli O157:H7: 2.92 ± 0.38 BC log CFU/g
[13]; Cabbage/Parsley, Seymot et al. (2002)
  Inactivation: ca 1.45 Log CFU
[13]; Lettuce, Seymor et al. 2002
  Inactivation: 0.72 Log CFU
[14]
  inactivated log CFU: 1.86 log CFU
[15]; 10 ppm free chlorine
  log CFU/mL reduction: 0.64 B^a ± 0.32^b log CFU/mL
[15]; 16 ppm free chlorine
  log CFU/mL reduction: 1.79 A ± 0.21 log CFU/mL
[15]; 48 ppm free chlorine
  log CFU/mL reduction: 0.33 ± 0.47^c log CFU/mL
[16]; 10 ppm free chlorine
  log CFU/mL reduction: 1.22 B ± 0.19 log CFU/mL
[16]; 16 ppm free chlorine
  log CFU/mL reduction: 2.77 A ± 0.36 log CFU/mL
[16]; 48 ppm free chlorine
  log CFU/mL reduction: 0.53 ± 0.21 log CFU/mL
[17]; 1.0 min, Koseki et al. (2003)
  Inactivation: ca. 1.0 Log CFU
[17]; 10.0 min, Kondo et al. (2006)
  Inactivation: 1.2 Log CFU
[18]; Lettuce & Spinach, Cl 600 PPM, 3.0 min, Niemera, 2007
  Inactivation: 0.5 Log CFU
[18]; Lettuce, Cl 20 PPM, 1.0 min, Li et al. (2001)
  Inactivation: 1.1 Log CFU
[19]; 10 ppm free chlorine
  log CFU/mL reduction: 1.20 B ± 0.10 log CFU/mL
[19]; 16 ppm free chlorine
  log CFU/mL reduction: 2.72 A ± 0.53 log CFU/mL
[19]; 48 ppm free chlorine
  log CFU/mL reduction: 0.25 ± 0.25 log CFU/mL
[20]; Lettuce (4° C.), Cl 200 PPM, 10.0 min, Zhang & Farber (1996)
  Inactivation: 1.3 Log CFU
[20]; Lettuce, Cl 20 PPM, 0.5 min, Li et al. (2002)
  Inactivation: 1.2 Log CFU
[20]; Lettuce, Cl 100 PPM, 1.0 min, Hellstrom et al. (2006)
  Inactivation: 0.7 Log CFU
[20]; Lettuce, Cl 100 PPM, 5.0 min, Akbas and Oimez (2007)
  Inactivation: 1.7 Log CFU
